Test results reported in US20220143226A1, “USE OF TRIAZOLO[4,5-D]PYRIMIDINE DERIVATIVES” (UNIVERSITÉ DE LIÈGE, priority 2019, published 2022).

Columns and labels:
platelet P2Y12 receptor = platelet P2Y12 receptor (Homo sapiens, UniProt Q9H244); settings: well-known in the art; cited from earlier work
[1] = tested on: platelet suspensions containing bacteria; assay: Radiotracer uptake into platelet suspensions containing bacteria; format: cell-based, human; settings: 2 MBq tracer, 1 h at 37° C.
Procedure: Preparation of human washed platelets: a Blood sample was collected from healthy volunteers on Acid Citrate Dextrose (ACD: 93 mM Na3-citrate, 7 mM citric acid, 14 mM dextrose, pH 6.0) containing 1 U/ml apyrase in a volume ratio of ACD to blood of 1:6. Blood was centrifuged for 5 s at 800×g followed by 5 min at 100×g to obtain platelet rich plasma (PRP). PRP was diluted 3-fold in ACD containing 1 U/ml apyrase ((Apyrase from potatoes, Grade I (A6132 Sigma-Aldrich)) and centrifuged at 1000×g to obtain a platelet pellet. The platelet pellet was resuspended at a concentration of 3×10^8 ml^−1 in Tyrode's buffer (137 mM NaCl, 12 mM NaHCO3, 2 mM KCl, 0.34 mM Na2HPO4, 1 mM MgCl2, 5.5 mM glucose, 5 mM Hepes, 0.35% Bovine Serum Albumine from Sigma Aldrich A3294) and Hepes refers to 4-(2-Hydroxyethyl)piperazine-1-ethanesulfonic acid, N-(2-Hydroxyethyl)piperazine-N′-(2-ethanesulfonic acid) (H4034, Sigma-Aldrich).
Bacteria and platelets were harvested by centrifugation (1000×g, 10 min) and washed three times by successive centrifugations (1000×g for 10 min). Supernatants were collected in scintillation vials. After washing, the cells were transferred into scintillation vials. Cells and supernatants were counted by gamma counter (2470 Wizard^2™ (Perkin Elmer))
Results were obtained as counts per min. […]

S. epidermidis bacteria = assay: Radiotracer uptake into bacteria, selectivity over mammalian cells (Example 4); format: cell-based; settings: 2 MBq tracer, 1 h at 37° C.
Procedure: S. epidermidis bacteria were grown overnight in tryptic soy broth (TSB) at 37° C., with shaking at 250 rpm. The overnight culture was diluted to OD600 0.1 and incubated until mid-exponential phase was reached. 1×10^8 CFU were resuspended in 1 ml RPMI 1640. […] Bacteria and non-adherent cells were harvested by centrifugation (600×g, 5 min) and washed three times by successive centrifugations. Cell supernatants were collected in scintillation vials. After washing, the cells were transferred into scintillation vials. Adherent cells were washed three times with fresh medium (McCoy's 5A medium plus 10% foetal bovine serum). Supernatants were collected into scintillation vials. Adherent cells were detached by trypsin treatment and placed into scintillation vials. The scintillation vials for cells and supernatants were counted by gamma counter. Results were obtained as counts per min. Results were normalised for controls (no cells) and by calculating the percentage of activity in the cell containing scintillation vials compared with the total counts (cells and supernatant combined).

THP1 cells = assay: Radiotracer uptake into THP1 cells; format: cell-based, human; settings: 2 MBq tracer, 1 h at 37° C.
Procedure: (§1) THP1 (ATCC® TIB-202™) and HL60 (ATCC® CCL-240™) cell lines were grown in RPMI 1640 tissue culture medium supplemented with L-glutamine, 10% foetal calf serum and 1% penicillin/streptomycin at 37° C. and 5% CO2. HT29 cell line (ATCC® HTB-38) was grown in McCoy's 5A medium and 10% foetal bovine serum at 37° C. and 5% CO2.
(§2) Non-adherent cell lines (HL60, THP1; 1×10^6 cells ml^−1) were harvested, washed and resuspended in 1 ml tissue culture medium. The adherent cells HT29 were maintained in 6-well plates at 80% confluence.
(§3) Bacteria and non-adherent cells were harvested by centrifugation (600×g, 5 min) and washed three times by successive centrifugations. Cell supernatants were collected in scintillation vials. After washing, the cells were transferred into scintillation vials. Adherent cells were washed three times with fresh medium (McCoy's 5A medium plus 10% foetal bovine serum). Supernatants were collected into scintillation vials. Adherent cells were detached by trypsin treatment and placed into scintillation vials. The scintillation vials for cells and supernatants were counted by gamma counter. Results were obtained as counts per min. Results were normalised for controls (no cells) and by calculating the percentage of activity in the cell containing scintillation vials compared with the total counts (cells and supernatant combined).

HL60 cells = assay: Radiotracer uptake into HL60 cells; format: cell-based, human; settings: 2 MBq tracer, 1 h at 37° C.
Procedure: as §1, §2, §3

HT29 cells = assay: Radiotracer uptake into HT29 cells; format: cell-based, human; settings: 2 MBq tracer, 1 h at 37° C.
Procedure: as §1, §2, §3

Chain of platelet P2Y12 receptor (Q9H244 whole entry): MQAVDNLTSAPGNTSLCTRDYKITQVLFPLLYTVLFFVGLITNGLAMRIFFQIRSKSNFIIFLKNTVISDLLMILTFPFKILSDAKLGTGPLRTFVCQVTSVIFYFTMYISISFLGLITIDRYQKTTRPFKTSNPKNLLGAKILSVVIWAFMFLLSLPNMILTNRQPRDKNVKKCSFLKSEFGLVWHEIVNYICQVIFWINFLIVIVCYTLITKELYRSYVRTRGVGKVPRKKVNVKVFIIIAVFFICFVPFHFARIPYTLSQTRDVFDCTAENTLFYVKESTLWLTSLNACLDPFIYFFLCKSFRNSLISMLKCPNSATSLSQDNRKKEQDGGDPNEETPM

| SMILES | binding to platelet P2Y12 receptor (platelet P2Y12 receptor) | relative activity associated with the cell mixture, relative to the activity of 18F-FDG [1] | uptake into bacteria (S. epidermidis bacteria) | uptake into THP1 (leukocytic) cells (THP1 cells) | uptake into HL-60 (leukocytic) cells (HL60 cells) | uptake into HT29 (tumor) cells (HT29 cells) |
| --- | --- | --- | --- | --- | --- | --- |
| CCCSc1nc(N[C@@H]2C[C@H]2c2ccc(F)c(F)c2)c2nnn([C@@H]3C[C@H](OCCO)[C@@H](O)[C@H]3O)c2n1 [Triafluocyl] | binds the platelet P2Y12 receptor reversibly | – | – | – | – | – |
| CCCSc1nc(NC2CC2c2ccc([18F])c(F)c2)c2nnn([C@@H]3C[C@H](OCCO)[C@@H](O)[C@H]3O)c2n1 (stereo partly drawn) [^18F-Triafluocyl, (1S,2S,3R,5S)-3-(7-((2-(3-fluoro-4-(fluoro-^18F)phenyl)cyclopropyl)amino)-5-(propylthio)-3H-[1,2,3]triazolo[4,5-d]pyrimidin-3-yl)-5-(2-hydroxyethoxy)cyclopentane-1,2-diol] | – | about 10 fold | uptake into bacteria | no uptake was observed | no uptake was observed | no uptake was observed |
